# Measured values reported in patent publication US11919854B2, “P2RX7 modulators in therapy” (Centre national de la recherche scientifique, priority 2018, dated 2024).
# Experiments:
# [1] = tested on: LLC (Lewis Lung Cancer) cells; assay: Syngeneic tumor mice model, LLC subcutaneous; assay type: in vivo, C57BL6 mice
# Protocol: 5×10^5 LLC or 5×10^5 B16F10 cells were injected sub cutaneously in the right flank of C57BL6 mice. Mice received HEI3090 (ip, 2.5 mg/kg in 10% DMSO/PBS) daily or placebo (10% DMSO/PBS). A,C. incidence of tumor appearance B,D. Tumor size (mm2) and tumor weight at sacrifice day (J12). E. HEI-treated tumors are more immunogenic. Expression of CMH1 (H2K^b/D^b) and PD-L1 by LLC (black) and B16F10 (grey) tumors is shown in dot plots. Numbers highlighted the percentage of tumor cells positive for H2K^b/D^b and PD-L1. […] F. CD-45 positive infiltrates is increased in LLC and B16F10 tumors. *, p<0.05; **, p<0.01; ***, p<0.001 Mann-Whitney test.
# 5×10^5 LLC or 5×10^5 B16F10 cells were injected sub cutaneously in the right flank of C57BL6 mice. Mice received HEI3090 (ip, 2.5 mg/kg in 10% DMSO/PBS) daily or placebo (10% DMSO/PBS). A. The quantity of immunosuppressive cells is reduced. Dot plot of representative experiment. Numbers highlighted the percentage of M-MDSC and PMN-MDSC. […] B. The quantity of effector T cells ([…], NK, CD4+) is increased.
# 5×10^5 LLC cells were injected sub cutaneously in the right flank of C57BL6 mice. Mice received HEI3090 (ip, 2.5 mg/kg in 10% DMSO/PBS) alone or in presence of anti CD4 antibody daily or placebo (10% DMSO/PBS). A. Tumor growth from the 3 groups was followed daily. B. tumor weight at sacrifice day (J12). *, p<0.05; ****, p<0.0001 (Mann-Whitney test).
# a, b. Phenotypic flow cytometry analyses of tumor infiltrating cells. LLC tumors were collected at day 12. Proportion of PMN-MDSC among CD45+ within LLC tumors from mice treated with vehicle or HEI3090 (a). Ratio of NK, CD4+ or CD8+ T cells on PMN-MDSC (b).
# c, d. 5.105 LLC were injected s.c. into the flank of C57BL6/J mice. Then mice were treated i.p. with vehicle (PBS, 10% DMSO) or with HEI3090 (1.5 mg/kg in PBS, 10% DMSO) or with HEI3090 and depleting antibody against NK1.1, CD4+ or CD8+ T cells. Antibodies were administered i.p every 3 days (200 μg/injection). Spaghetti plots and tumor weight at day 12 (d). Each curve represents one mouse.
# e-g Functional flow cytometry analyses of tumor infiltrating immune cells or splenocytes. Tumors were stimulated with PMA/ionomycine and production of IFN-γ and IL-10 were simultaneously analyzed in CD45+, NK, CD4+ or CD8+ T cells. Graphs shown proportion of IFN-γ producing cells into CD45+ cells or geometric mean of fluorescence (e). Representative dot plots of IFN-γ and IL-10 staining into TILs (f). Ratios of IFN-γ on IL-10 positive cells on each TIL. Degranulation assay of splenocytes from LLC tumor bearing mice treated with vehicle or HEI3090 (g) Splenocytes were re-stimulated with LLC in vitro and CD107a positive cells in NK, CD4+ and CD8+ T cells were represented.
# a. Flow cytometry analyses of P2RX7 expression among conventional dendritic cells CD4+ or CD8+ within LLC tumors.
# b. Protein levels of IL-1p and IL-18 in serum of LLC tumor bearing mice treated with vehicle or HEI3090, determined by ELISA.
# c. 5.105 LLC were injected s.c. into the flank of C57BL6/J mice. Then mice were treated i.p. with vehicle (PBS, 10% DMSO) or with HEI3090 (1.5 mg/kg in PBS, 10% DMSO) or with HEI3090 and neutralizing antibody against IL-1p or IL-18 from day 1 to day 12. Antibodies were administered i.p every 3 days (200 μg/injection).
# e. Effect of HEI3090 on tumor growth in IL-18 deficient mice (IL-18^−/−). 5.105 LLC were injected s.c. into the flank of IL-18^−/− mice. Mice were treated i.p. with vehicle (PBS, 10% DMSO) or with HEI3090 (1.5 mg/kg in PBS, 10% DMSO) from day 1 to day 12.
# 4.2. By killing tumoral cells, HEI3090 may represent a new anti-tumor treatment. To test this hypothesis, immunocompetent C57B16J mice were subcutaneously injected with 5×10^5 B16F10 or 5×10^5 LLC (Lewis Lung Cancer) cells and treated daily with HEI3090 (ip, 2.5 mg/kg in 10% DMSO/PBS) or placebo (10% DMSO/PBS). […]
# B16-F10 cells = assay: In vivo assay for immunogenic cell death (ICD), B16-F10; parameters: species or system mice; conditions: B16-F10 exposed to 3 mM ATP and 50 μM HEI3090, contralateral challenge
# Protocol: a-b. In vivo assay for the evaluation of HEI3090 as an inducer of immunogenic cell death.
# To induce B16-F10 death, cells were exposed to 3 mM ATP and 50 μM HEI3090 and 1.105 dying cells, or PBS as control, were injected sc in the right flank (n=4). 7 days later, 0.5.105 live B16-F10 cells were injected s.c. in the contralateral flank. (a). Curves shown mean of tumor growth in the contralateral site (b).
# The inventors performed dedicated experiment to test the hypothesis that HEI3090 may induce immunogenic cell death (ICD).
smiles,measurement,setting,value
"O=C(NCc1ccc(Cl)cc1Cl)[C@@H]1CCC(=O)N1C(=O)Nc1ccc(Cl)nc1 [HEI3090, (S)—N^1-(6-Chloropyridin-3-yl)-N^2-(2,4-dichlorobenzyl)-5-oxopyrrolidine-1,2-dicarboxamide]",IL18 in plasma and within the tumor,"[1]; ELISA in serum, IHC in tumors",overexpressed
same,immune cells required for anti-tumor effect,"[1]; HEI3090 1.5 mg/kg ip with depleting antibody against NK1.1, CD4+ or CD8+ T cells",both NK and CD4+ cells are required
same,IFN-γ expression of NK and CD4+ cells in tumor,"[1]; HEI3090 1.5 mg/kg ip, flow cytometry",expressed more IFN-γ
same,immunosuppressive cells (PMN-MDSC) in tumor infiltrates,[1]; HEI3090 ip 2.5 mg/kg daily,less PMN-MDSC
same,tumors weight,[1]; HEI3090 ip 2.5 mg/kg daily (placebo 295 mg),80 mg
same,reduction of tumors weight,"[1]; HEI3090 ip 2.5 mg/kg daily, vs placebo",4 folds
same,tumor size with depletion of T CD4+ lymphocytes,[1]; HEI3090 plus anti-T CD4+ antibody,"bigger than tumors from the HEI3090 group, and smaller than tumors from the placebo group"
same,tumor growth without IL18,"[1]; blocking IL18 antibody and Il18−/− mice, HEI3090 1.5 mg/kg ip",did not block tumor growth anymore
same,P2RX7 expression on dendritic cells within tumors,[1]; flow cytometry,increased P2RX7 expression on dendritic cells
same,induction of immunogenic cell death (ICD),B16-F10 cells,does not promote ICD
